Source: patent US9814241B2

Legend:
[1] = test system: Alternaria solani; test: Alternaria test (tomatoes)/preventive; assay type: in vivo; settings: preventive, evaluated 3 days after inoculation
[2] = test system: Venturia inaequalis; test: Venturia test (apples)/preventive; settings: preventive, 100 ppm a.i., evaluated 10 days after inoculation
Procedure: After the spray coating has dried on, the plants are inoculated with an aqueous conidia suspension of the causal agent of apple scab (Venturia inaequalis) and then remain for 1 day in an incubation cabinet at approximately 20° C. and a relative atmospheric humidity of 100%.
The plants are then placed in a greenhouse at approximately 21° C. and a relative atmospheric humidity of approximately 90%.
The test is evaluated 10 days after the inoculation.

[3] = test system: Sphaerotheca fuliginea; test: Sphaerotheca test (cucumbers)/preventive; settings: preventive, 100 ppm a.i., evaluated 7 days after inoculation
Procedure: After the spray coating has dried on, the plants are inoculated with an aqueous spore suspension of Sphaerotheca fuliginea. The plants are then placed in a greenhouse at approximately 23° C. and a relative atmospheric humidity of approximately 70%.
The test is evaluated 7 days after the inoculation.

With `Cc1cc(C(F)(F)F)nn1CC(=O)N1CCC(c2nc(C3=NOC(c4c(F)cccc4F)C3)cs2)CC1` (stereo not drawn) [F315, 1-(4-{4-[5-(2,6-difluorophenyl)-4,5-dihydro-1,2-oxazol-3-yl]-1,3-thiazol-2-yl}piperidin-1-yl)-2-[5-methyl-3-(trifluoromethyl)-1H-pyrazol-1-yl]ethanone] the “Efficacy in % Found” value ([1]; Table C1, tomatoes, 100 ppm a.i.) was 0%.
For fosetyl-aluminium [F281], the “Efficacy in % Found” value ([1]; Table C2, tomatoes, 100 ppm a.i.) was 0%.
With `N#Cc1ccccc1NC(=O)c1snc(Cl)c1Cl` [F187, isotianil] the “Efficacy in % Found” value ([1]; Table C1, tomatoes, 50 ppm a.i.) was 36%, the “Efficacy in % Found” value [2] was 0% and the “Efficacy in % Found” value [3] was 0%.
With phosphorous acid and its salts [F298] the “Efficacy in % Found” value ([1]; Table C2, tomatoes, 400 ppm a.i.) was 35%.
